Assay results from PubChem BioAssay AID2060508 (Molecular Pharmacology Branch, DTP, NCI, 2025).

Tested on: 454973-116-R2-J3-PDC spheroids, viability, % test/control
Assay: Anticancer human tumor 454973-116-R2-J3-PDC patient-derived pancreatic carcinoma cell line growth inhibition [GQUAD]
Details: spheroids with HUVEC and MSC; for IC50: curve of first compound; for viability, T/C: stronger effect = lower value; active = viability on the fitted dose curve at most 10% of control; inactive = the rest
Outline: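 Tumor cells were grown as complex spheroids with HUVEC endothelial cells and mesenchymal stem cells as stroma. G-quadruplex stabilizers were combined with targeted agents over half-log dilutions from near the clinical Cmax, or from 10 microM.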

[1] = second compound 0.0316 µM, first compound 0.0316 µM
[2] = second compound 0.0316 µM, first compound 0.1 µM
[3] = second compound 0.0316 µM, first compound 0.316 µM
[4] = second compound 0.0316 µM, first compound 1 µM
[5] = second compound 0.0316 µM, first compound 3.16 µM
[6] = second compound 0.0316 µM, first compound 10 µM
[7] = second compound 0.1 µM, first compound 0.0316 µM
[8] = second compound 0.1 µM, first compound 0.1 µM
[9] = second compound 0.1 µM, first compound 0.316 µM
[10] = second compound 0.1 µM, first compound 1 µM
[11] = second compound 0.1 µM, first compound 3.16 µM
[12] = second compound 0.1 µM, first compound 10 µM
[13] = second compound 0.316 µM, first compound 0.0316 µM
[14] = second compound 0.316 µM, first compound 0.1 µM
[15] = second compound 0.316 µM, first compound 0.316 µM
[16] = second compound 0.316 µM, first compound 1 µM
[17] = second compound 0.316 µM, first compound 3.16 µM
[18] = second compound 0.316 µM, first compound 10 µM
[19] = second compound 1 µM, first compound 0.0316 µM
[20] = second compound 1 µM, first compound 0.1 µM
[21] = second compound 1 µM, first compound 0.316 µM
[22] = second compound 1 µM, first compound 1 µM
[23] = second compound 1 µM, first compound 3.16 µM
[24] = second compound 1 µM, first compound 10 µM
[25] = second compound 3.16 µM, first compound 0.0316 µM
[26] = second compound 3.16 µM, first compound 0.1 µM
[27] = second compound 3.16 µM, first compound 0.316 µM
[28] = second compound 3.16 µM, first compound 1 µM
[29] = second compound 3.16 µM, first compound 3.16 µM
[30] = second compound 3.16 µM, first compound 10 µM
[31] = second compound 10 µM, first compound 0.0316 µM
[32] = second compound 10 µM, first compound 0.1 µM
[33] = second compound 10 µM, first compound 0.316 µM
[34] = second compound 10 µM, first compound 1 µM
[35] = second compound 10 µM, first compound 3.16 µM
[36] = second compound 10 µM, first compound 10 µM
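Also: spheroids exposed to compounds for seven days.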
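For viability, T/C in this document: 100% = DMSO vehicle control viability.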

O=c1[nH]cc(F)c(=O)[nH]1 + Cc1[nH]c2ccc(F)cc2c1-c1nc2c3cccnc3c3ncccc3c2[nH]1
1880 nM: IC50 (second compound 10 µM)
1530 nM: IC50 (second compound 0.1 µM)
1920 nM: IC50 (second compound 3.16 µM)
2360 nM: IC50 (second compound 1 µM)
inactive: viability, T/C [1] 116% | viability, T/C [2] 115% | viability, T/C [3] 109% | viability, T/C [4] 77.9% | viability, T/C [5] 34.5% | viability, T/C [6] 42.2% | viability, T/C [7] 105% | viability, T/C [8] 109% | viability, T/C [9] 109% | viability, T/C [10] 57.5% | viability, T/C [11] 33.7% | viability, T/C [12] 40.5% | viability, T/C [13] 107% | viability, T/C [14] 110% | viability, T/C [15] 105% | viability, T/C [16] 78.9% | viability, T/C [17] 31.8% | viability, T/C [18] 41.1% | viability, T/C [19] 99.2% | viability, T/C [20] 97.2% | viability, T/C [21] 95.4% | viability, T/C [22] 79.1% | viability, T/C [23] 33.9% | viability, T/C [24] 46.3% | viability, T/C [25] 96.5% | viability, T/C [26] 96.1% | viability, T/C [27] 99.9% | viability, T/C [28] 65.1% | viability, T/C [29] 31.4% | viability, T/C [30] 45.6% | viability, T/C [31] 93.5% | viability, T/C [32] 87.7% | viability, T/C [33] 102% | viability, T/C [34] 63.7% | viability, T/C [35] 30.9% | viability, T/C [36] 46.6%
2190 nM: IC50 (second compound 0.316 µM)
2250 nM: IC50 (second compound 0.0316 µM)

C=CCn1c(=O)c2cnc(Nc3ccc(N4CCN(C)CC4)cc3)nc2n1-c1cccc(C(C)(C)O)n1 + Cc1[nH]c2ccc(F)cc2c1-c1nc2c3cccnc3c3ncccc3c2[nH]1
433 nM: IC50 (second compound 1 µM)
339 nM: IC50 (second compound 10 µM)
478 nM: IC50 (second compound 0.1 µM)
335 nM: IC50 (second compound 3.16 µM)
inactive: viability, T/C [1] 124% | viability, T/C [2] 92.8% | viability, T/C [3] 60.4% | viability, T/C [4] 15.3% | viability, T/C [7] 101% | viability, T/C [8] 95.5% | viability, T/C [9] 69.8% | viability, T/C [10] 15% | viability, T/C [13] 105% | viability, T/C [14] 99% | viability, T/C [15] 58.7% | viability, T/C [16] 16.7% | viability, T/C [17] 7.33% | viability, T/C [19] 111% | viability, T/C [20] 96.2% | viability, T/C [21] 63.4% | viability, T/C [22] 18.3% | viability, T/C [25] 101% | viability, T/C [26] 98.6% | viability, T/C [27] 51.8% | viability, T/C [28] 14.2% | viability, T/C [29] 7.78% | viability, T/C [30] 12.1% | viability, T/C [31] 100% | viability, T/C [32] 78.4% | viability, T/C [33] 57.6% | viability, T/C [34] 14.1%
active: viability, T/C [5] 7.69% | viability, T/C [6] 10.2% | viability, T/C [11] 6.68% | viability, T/C [12] 11.6% | viability, T/C [18] 12.1% | viability, T/C [23] 6.95% | viability, T/C [24] 12.4% | viability, T/C [35] 7.95% | viability, T/C [36] 12.3%
364 nM: IC50 (second compound 0.0316 µM)
401 nM: IC50 (second compound 0.316 µM)

CC[C@@]1(O)C(=O)OCc2c1cc1n(c2=O)Cc2cc3c(CN(C)C)c(O)ccc3nc2-1 + CN(C)c1ccc(Nc2c3ccc(NC(=O)CCN4CCCC4)cc3nc3cc(NC(=O)CCN4CCCC4)ccc23)cc1
inactive: viability, T/C (second compound 0.0316 µM, first compound 0.000999 µM) 97.5% | viability, T/C (second compound 0.0316 µM, first compound 0.00316 µM) 97.7% | viability, T/C (second compound 0.0316 µM, first compound 0.00999 µM) 99.5% | viability, T/C [1] 64% | viability, T/C (second compound 0.0316 µM, first compound 0.0999 µM) 18.2% | viability, T/C [3] 20.1% | viability, T/C (second compound 0.1 µM, first compound 0.000999 µM) 111% | viability, T/C (second compound 0.1 µM, first compound 0.00316 µM) 102% | viability, T/C (second compound 0.1 µM, first compound 0.00999 µM) 88.4% | viability, T/C [7] 60.6% | viability, T/C (second compound 0.1 µM, first compound 0.0999 µM) 18.2% | viability, T/C [9] 20.5% | viability, T/C (second compound 0.316 µM, first compound 0.000999 µM) 101% | viability, T/C (second compound 0.316 µM, first compound 0.00316 µM) 111% | viability, T/C (second compound 0.316 µM, first compound 0.00999 µM) 82.1% | viability, T/C [13] 51.3% | viability, T/C (second compound 0.316 µM, first compound 0.0999 µM) 23.4% | viability, T/C [15] 23% | viability, T/C (second compound 1 µM, first compound 0.000999 µM) 99.3% | viability, T/C (second compound 1 µM, first compound 0.00316 µM) 89.8% | viability, T/C (second compound 1 µM, first compound 0.00999 µM) 87.1% | viability, T/C [19] 51.7% | viability, T/C (second compound 1 µM, first compound 0.0999 µM) 20.3% | viability, T/C [21] 21.7% | viability, T/C (second compound 3.16 µM, first compound 0.000999 µM) 98.7% | viability, T/C (second compound 3.16 µM, first compound 0.00316 µM) 82.4% | viability, T/C (second compound 3.16 µM, first compound 0.00999 µM) 83% | viability, T/C [25] 47.7% | viability, T/C (second compound 3.16 µM, first compound 0.0999 µM) 27.6% | viability, T/C [27] 23.4% | viability, T/C (second compound 10 µM, first compound 0.000999 µM) 83.9% | viability, T/C (second compound 10 µM, first compound 0.00316 µM) 71.8% | viability, T/C (second compound 10 µM, first compound 0.00999 µM) 61.5% | viability, T/C [31] 53.6% | viability, T/C (second compound 10 µM, first compound 0.0999 µM) 31% | viability, T/C [33] 25.7%
39.5 nM: IC50 (second compound 0.1 µM)
28.8 nM: IC50 (second compound 10 µM)
32.7 nM: IC50 (second compound 1 µM)
45.3 nM: IC50 (second compound 0.0316 µM)
30.3 nM: IC50 (second compound 0.316 µM)
29.9 nM: IC50 (second compound 3.16 µM)
